From ChEMBL document CHEMBL4622943, “Design, synthesis and biological evaluation of 2-methyl-(1,1'-biphenyl)-pyrimidine conjugates” (Bioorg Med Chem Lett, 2020)
Active and inactive are the calls of the source. No cut-off for these calls is given here.

Columns and labels:
SK-OV-3 [1] = assay: Induction of apoptosis in human SKOV3 cells assessed as late apoptotic cells at 5 uM by FITC staining based flow cytometry (reference value: 2.14 to 2.83 %); format: functional
A549 [2] = assay: Inhibition of cell migration in human A549 cells at 0.6 uM incubated for 48 hrs by wound healing assay relative to control; format: functional; details: A549, 48 h
SK-OV-3 [3] = assay: Induction of apoptosis in human SKOV3 cells assessed as live cells at 10 uM by FITC staining based flow cytometry (reference value: 95.5 to 96 %); format: functional
HCC827 = assay: Antiproliferative activity against human HCC827 cells assessed as cell growth inhibition by CCK8 assay; format: functional, cell-based
A-375 = assay: Antiproliferative activity against human A375 cells assessed as cell growth inhibition by CCK8 assay; format: functional, cell-based
SK-OV-3 [4] = assay: Induction of apoptosis in human SKOV3 cells assessed as late apoptotic cells at 10 uM by FITC staining based flow cytometry (reference value: 2.14 to 2.83 %); format: functional
HepG2 = assay: Inhibition of cell migration in human HepG2 cells incubated for 48 hrs by wound healing assay; format: functional, cell-based
SK-OV-3 [5] = assay: Induction of apoptosis in human SKOV3 cells assessed as live cells at 5 uM by FITC staining based flow cytometry (reference value: 95.5 to 96 %); format: functional
SK-OV-3 [6] = assay: Induction of apoptosis in human SKOV3 cells assessed as necrotic cells at 10 uM by FITC staining based flow cytometry (reference value: 1.74 to 1.93 %); format: functional
MDA-MB-231 = assay: Antiproliferative activity against human MDA-MB-231 cells assessed as cell growth inhibition by CCK8 assay; format: functional, cell-based
SK-OV-3 [7] = assay: Inhibition of cell migration in human SKOV3 cells incubated for 48 hrs by wound healing assay; format: functional, cell-based
[8] = Selectivity index, ratio of IC50 for human MRC5 cells to IC50 for human HepG2 cells assessed as cell growth inhibition by CCK8 assay; format: toxicity; details: MRC5 cells versus HepG2 cells, read-out: Ratio IC50
SK-OV-3 [9] = assay: Inhibition of cell migration in human SKOV3 cells at 0.6 uM incubated for 48 hrs by wound healing assay relative to control; format: functional; details: SK-OV-3, 48 h
MRC5 = assay: Cytotoxicity against human MRC5 cells assessed as cell growth inhibition by CCK8 assay; format: cell-based
A549 [10] = assay: Antiinvasive activity against human A549 cells at 0.6 uM after 24 hrs by crystal violet staining based transwell assay relative to control; format: functional
HT-29 = assay: Inhibition of cell migration in human HT-29 cells incubated for 48 hrs by wound healing assay; format: functional, cell-based
A549 [11] = assay: Induction of apoptosis in human A549 cells assessed as necrotic cells at 5 uM by FITC staining based flow cytometry (reference value: 0.78 to 1.49 %); format: functional
[12] = Selectivity index, ratio of IC50 for human MRC5 cells to IC50 for human A549 cells assessed as cell growth inhibition by CCK8 assay; format: toxicity; details: MRC5 cells versus A549 cells, read-out: Ratio IC50
[13] = biological target: Programmed cell death protein 1/Programmed cell death 1 ligand 1 (Homo sapiens, UniProt Q15116+Q9NZQ7); assay: Inhibition of PD1 (unknown origin)/PDL1 (unknown origin) protein-protein interaction by HTRF assay; format: protein-complex assay
Programmed cell death protein 1/Programmed cell death 1 ligand 1, sequence (Q15116 whole entry): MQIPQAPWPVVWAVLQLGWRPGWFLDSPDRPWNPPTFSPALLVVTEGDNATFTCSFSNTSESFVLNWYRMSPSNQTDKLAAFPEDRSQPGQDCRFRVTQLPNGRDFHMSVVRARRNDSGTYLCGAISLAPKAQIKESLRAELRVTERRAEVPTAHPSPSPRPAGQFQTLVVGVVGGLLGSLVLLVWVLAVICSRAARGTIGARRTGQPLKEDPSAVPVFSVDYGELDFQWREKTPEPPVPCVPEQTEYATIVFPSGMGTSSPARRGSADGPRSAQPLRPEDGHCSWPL
Programmed cell death protein 1/Programmed cell death 1 ligand 1, sequence (Q9NZQ7 whole entry): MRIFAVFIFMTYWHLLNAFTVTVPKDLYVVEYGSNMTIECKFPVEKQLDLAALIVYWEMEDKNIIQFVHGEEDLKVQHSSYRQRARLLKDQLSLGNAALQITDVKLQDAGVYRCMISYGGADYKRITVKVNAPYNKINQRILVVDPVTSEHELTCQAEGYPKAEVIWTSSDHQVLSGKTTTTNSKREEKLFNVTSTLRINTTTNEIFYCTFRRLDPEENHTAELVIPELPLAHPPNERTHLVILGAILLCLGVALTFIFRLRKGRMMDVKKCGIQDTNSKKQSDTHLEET

A549 [14] = assay: Induction of apoptosis in human A549 cells assessed as necrotic cells at 10 uM by FITC staining based flow cytometry (reference value: 0.78 to 1.49 %); format: functional
A549 [15] = assay: Induction of apoptosis in human A549 cells assessed as live cells at 5 uM by FITC staining based flow cytometry (reference value: 96 to 96.6 %); format: functional
SK-OV-3 [16] = assay: Induction of apoptosis in human SKOV3 cells assessed as necrotic cells at 5 uM by FITC staining based flow cytometry (reference value: 1.74 to 1.93 %); format: functional
SK-OV-3 [17] = assay: Induction of apoptosis in human SKOV3 cells assessed as early apoptotic cells at 10 uM by FITC staining based flow cytometry (reference value: 0.59 to 0.97 %); format: functional
SK-OV-3 [18] = assay: Induction of apoptosis in human SKOV3 cells assessed as early apoptotic cells at 5 uM by FITC staining based flow cytometry (reference value: 0.59 to 0.97 %); format: functional
A549 [19] = assay: Induction of apoptosis in human A549 cells assessed as early apoptotic cells at 10 uM by FITC staining based flow cytometry (reference value: 0.34 to 0.39 %); format: functional
[20] = Selectivity index, ratio of IC50 for human MRC5 cells to IC50 for human HT-29 cells assessed as cell growth inhibition by CCK8 assay; format: toxicity; details: MRC5 cells versus HT-29 cells, read-out: Ratio IC50
NCI-H1299 = assay: Antiproliferative activity against human H1299 cells assessed as cell growth inhibition by CCK8 assay; format: functional, cell-based
A549 [21] = assay: Inhibition of cell migration in human A549 cells incubated for 48 hrs by wound healing assay; format: functional, cell-based
AGS = assay: Antiproliferative activity against human AGS cells assessed as cell growth inhibition by CCK8 assay; format: functional, cell-based
[22] = Selectivity index, ratio of IC50 for human MRC5 cells to IC50 for human SKOV3 cells assessed as cell growth inhibition by CCK8 assay; format: toxicity; details: MRC5 cells versus SKOV3 cells, read-out: Ratio IC50
A549 [23] = assay: Induction of apoptosis in human A549 cells assessed as early apoptotic cells at 5 uM by FITC staining based flow cytometry (reference value: 0.34 to 0.39 %); format: functional
A549 [24] = assay: Induction of apoptosis in human A549 cells assessed as late apoptotic cells at 5 uM by FITC staining based flow cytometry (reference value: 2.12 to 2.33 %); format: functional
A549 [25] = assay: Induction of apoptosis in human A549 cells assessed as late apoptotic cells at 10 uM by FITC staining based flow cytometry (reference value: 2.12 to 2.33 %); format: functional
A549 [26] = assay: Induction of apoptosis in human A549 cells assessed as live cells at 10 uM by FITC staining based flow cytometry (reference value: 96 to 96.6 %); format: functional
SK-OV-3 [27] = assay: Antiinvasive activity against human SKOV3 cells at 0.6 uM after 24 hrs by crystal violet staining based transwell assay relative to control; format: functional

Structure (SMILES) | IC50 (HCC827) [µM] | IC50 (A-375) [µM] | IC50 (MDA-MB-231) [µM] | IC50 (NCI-H1299) [µM] | IC50 (AGS) [µM] | Activity (SK-OV-3 [1]) [%] | inhibition at 0.6 µM (A549 [2]) [%] | Activity (SK-OV-3 [3]) [%] | Activity (SK-OV-3 [4]) [%] | inhibition (HepG2) | Activity (SK-OV-3 [5]) [%] | Activity (SK-OV-3 [6]) [%] | inhibition (SK-OV-3 [7]) | selectivity ratio [8] | IC50 (MRC5) [µM] | inhibition (HT-29) | selectivity ratio [12] | selectivity ratio [20] | inhibition (A549 [21]) | selectivity ratio [22] | also measured
Cc1c(CNc2nc(NCCCN3CCCCC3)cc(N3CCOCC3)n2)cccc1-c1ccccc1 |  |  |  |  |  | 2.31 |  | 91.3 | 4.98 | Active | 95 | 2.18 | Active | 295 | 879 | Active | 185 | 267 | Active | 267 | Activity (SK-OV-3 [16]): 1.87%; Activity (SK-OV-3 [17]): 1.49%; Activity (SK-OV-3 [18]): 0.85%; Activity (SK-OV-3 [27]): 60%
Cc1c(CNc2nc(NCCCN(C)C)cc(N3CCOCC3)n2)cccc1-c1ccccc1 |  |  |  |  |  |  | 53.4 |  |  | Active |  |  | Active | 213 | 1050 | Active | 112 | 129 | Active | 129 | inhibition at 0.6 µM (SK-OV-3 [9]): 39.6%; Activity (A549 [10]): 21.81%; Activity (A549 [11]): 2.05%; Activity (A549 [14]): 3.76%; Activity (A549 [15]): 92.7%; Activity (A549 [19]): 4.42%; Activity (A549 [23]): 1.28%; Activity (A549 [24]): 3.99%; Activity (A549 [25]): 18.2%; Activity (A549 [26]): 81.7%
CCN(CC)CCCNc1cc(N2CCOCC2)nc(NCc2cccc(-c3ccccc3)c2C)n1 |  |  |  |  |  |  |  |  |  | Active |  |  | Active | 165 | 924 | Active | 114 | 119 | Active | 119 | 

Continued, in another order:

IC50 (HCC827) [µM] | IC50 (A-375) [µM] | IC50 (MDA-MB-231) [µM] | IC50 (NCI-H1299) [µM] | IC50 (AGS) [µM] | Structure (SMILES) | Activity (SK-OV-3 [1]) [%] | inhibition at 0.6 µM (A549 [2]) [%] | Activity (SK-OV-3 [3]) [%] | Activity (SK-OV-3 [4]) [%] | inhibition (HepG2) | Activity (SK-OV-3 [5]) [%] | Activity (SK-OV-3 [6]) [%] | inhibition (SK-OV-3 [7]) | selectivity ratio [8] | IC50 (MRC5) [µM] | inhibition (HT-29) | selectivity ratio [12] | selectivity ratio [20] | inhibition (A549 [21]) | selectivity ratio [22] | also measured
5.27 | 4.03 | 4.88 | 6.74 | 3.11 | CCN(CC)CCCNc1cc(N2CCNCC2)nc(NCc2cccc(-c3ccccc3)c2C)n1 | 4.08 | 42.4 | 54.5 | 8.26 | Active | 87.8 | 25.7 | Active | 82 | 579 | Active | 147 | 278 | Active | 278 | inhibition at 0.6 µM (SK-OV-3 [9]): 68.6%; Activity (A549 [10]): 70.23%; Activity (A549 [11]): 2.24%; IC50 [13]: 5.15 µM; Activity (A549 [14]): 8.19%; Activity (A549 [15]): 87.1%; Activity (SK-OV-3 [16]): 3.16%; Activity (SK-OV-3 [17]): 11.5%; Activity (SK-OV-3 [18]): 5%; Activity (A549 [19]): 17.7%; Activity (A549 [23]): 4.3%; Activity (A549 [24]): 6.33%; Activity (A549 [25]): 14.6%; Activity (A549 [26]): 59.6%; Activity (SK-OV-3 [27]): 66.68%
7.28 | 7 | 6.75 | 8.1 | 4.52 | Cc1c(CNc2nc(NCCCN3CCCC3)cc(N3CCOCC3)n2)cccc1-c1ccccc1 |  |  |  |  | Active |  |  | Active | 198 | 1050 | Active | 103 | 139 | Active | 139 | 
7.28 | 7 | 6.75 | 8.1 | 4.52 | Cc1c(CNc2nc(NCCCN3CCOCC3)cc(N3CCOCC3)n2)cccc1-c1ccccc1 |  |  |  |  |  |  |  |  |  |  |  |  |  |  |  | 
